Measurements: ChEMBL document CHEMBL4265968, “Efficient analoging around ethionamide to explore thioamides bioactivation pathways triggered by boosters in Mycobacterium tuberculosis” (Eur J Med Chem, 2018)
In brackets after ≈: the same amount, converted by molar mass.

What was measured:
[1] = tested on: Mycobacterium tuberculosis; test: Antimycobacterial activity against GFP expressing Mycobacterium tuberculosis H37Rv after 7 days by fluorescence assay; type: functional; conditions: 168 h
[2] = tested on: Mycobacterium tuberculosis; test: Antimycobacterial activity against GFP expressing Mycobacterium tuberculosis H37Rv after 7 days in presence of EthR inhibitor BDM41906 by fluorescence assay; type: functional; conditions: 168 h
[3] = tested on: Mycobacterium tuberculosis; test: Antimycobacterial activity against GFP expressing Mycobacterium tuberculosis H37Rv after 7 days in presence of EthR2 inhibitor SMARt-420 by fluorescence assay; type: functional; conditions: 168 h
[4] = tested on: Mycobacterium tuberculosis; test: Ratio of MIC50 for GFP expressing Mycobacterium tuberculosis H37Rv in absence of EthR inhibitor BDM41906 to MIC50 for GFP expressing Mycobacterium tuberculosis H37Rv in presence of EthR inhibitor BDM41906; type: functional
[5] = tested on: Mycobacterium tuberculosis; test: Ratio of MIC50 for GFP expressing Mycobacterium tuberculosis H37Rv in absence of EthR2 inhibitor SMARt-420 to MIC50 for GFP expressing Mycobacterium tuberculosis H37Rv in presence of EthR2 inhibitor SMARt-420; type: functional
[6] = Electrochemical behavior of the compound assessed as redox potential corrected toward normal hydrogen electrode at 10^-3 M by cyclic voltammetry; type: physicochemical; conditions: 1000 µM

SMILES	MIC50 [1] [µM]	MIC50 [2] [µM]	MIC50 [3] [µM]	Ratio [4]	Ratio [5]	Activity [6] [V]
NC(=S)c1ccnc(CC(F)(F)F)c1	> 30	10	1.5	>3	>20	1.55
NC(=S)c1ccnc(Cc2ccccc2)c1	1.1 (≈ 0.251 µg/mL)	0.1	0.1	11	11	–
CCC(C)c1cc(C(N)=S)ccn1 (centres undefined)	30 (≈ 5.83 µg/mL)	0.2	0.2	150	150	1.48
CCCCc1cc(C(N)=O)ccn1	> 30	> 30	> 30	–	–	–
NC(=S)c1ccnc(C2CC2)c1	6.6 (≈ 1.18 µg/mL)	1	0.5	7	13	1.4
NC(=S)c1ccnc(Cc2ccc(F)cc2)c1	1 (≈ 0.246 µg/mL)	0.2	0.1	5	10	–
CC(C)CCc1cc(C(N)=S)ccn1	6.6 (≈ 1.37 µg/mL)	0.1	0.1	52	52	1.63
CCOC(=O)CCc1cc(C(N)=S)ccn1	> 30	3.8	1.3	>8	>23	–
N#Cc1cccc(Cc2cc(C(N)=S)ccn2)c1	0.5 (≈ 0.127 µg/mL)	0.1	0.1	5	5	–
CCc1cc(/C(N)=[S+]/[O-])ccn1	10 (≈ 1.82 µg/mL)	0.4	0.3	25	33	–
NC(=S)c1ccnc(C2(C(F)(F)F)CC2)c1	> 30	10	10	>3	>3	1.65
NC(=S)c1ccnc(CC2CCCCC2)c1	> 30	0.6	0.7	>50	>43	1.62
COc1ccc(Cc2cc(C(N)=S)ccn2)cc1	2.4 (≈ 0.62 µg/mL)	0.3	0.2	8	12	–
CC(C)c1cc(C(N)=S)ccn1	21 (≈ 3.79 µg/mL)	0.1	0.2	210	105	1.62
CC(c1ccccc1)c1cc(C(N)=S)ccn1 (centres undefined)	> 30	0.6	0.7	>50	>43	–
NC(=S)c1ccnc(Cc2cccc(F)c2)c1	0.6 (≈ 0.148 µg/mL)	0.1	0.1	6	6	–
CCCCc1cc(C(N)=S)ccn1	5.8 (≈ 1.13 µg/mL)	0.6	0.4	10	15	1.39
CC(C)Cc1cc(C(N)=S)ccn1	> 30	9.1	3.8	>3	>8	1.57
CCc1cc(C(N)=S)ccn1 [ETHIONAMIDE]	19 (≈ 3.16 µg/mL)	2	0.9	10	21	1.46
CCCc1cc(C(N)=S)ccn1 [PROTIONAMIDE]	13 (≈ 2.34 µg/mL)	0.9	0.5	14	26	1.43
